Converted amounts (≈) assume the structure as drawn.
Experiments:
[1] = tested on: Streptococcus pneumoniae; assay: Antibacterial activity against Streptococcus pneumoniae ARC548; format: functional
[2] = tested on: Staphylococcus aureus; assay: Antibacterial activity against methicillin-, quinolone-resistant Staphylococcus aureus; format: functional
[3] = Lipophilicity, log D of the compound; details: octanol/water
[4] = Inhibition of Streptococcus pneumoniae DNA Topoisomerase 4 subunit ParE
[5] = molecular target: DNA gyrase subunit B (Staphylococcus aureus, UniProt P0A0K8); assay: Inhibition of Staphylococcus aureus DNA gyrase B expressed in Escherichia coli BL21(DE3) cells assessed ATP hydrolysis activity […] by malachite green reagent assay
DNA gyrase subunit B, sequence (P0A0K8 whole entry): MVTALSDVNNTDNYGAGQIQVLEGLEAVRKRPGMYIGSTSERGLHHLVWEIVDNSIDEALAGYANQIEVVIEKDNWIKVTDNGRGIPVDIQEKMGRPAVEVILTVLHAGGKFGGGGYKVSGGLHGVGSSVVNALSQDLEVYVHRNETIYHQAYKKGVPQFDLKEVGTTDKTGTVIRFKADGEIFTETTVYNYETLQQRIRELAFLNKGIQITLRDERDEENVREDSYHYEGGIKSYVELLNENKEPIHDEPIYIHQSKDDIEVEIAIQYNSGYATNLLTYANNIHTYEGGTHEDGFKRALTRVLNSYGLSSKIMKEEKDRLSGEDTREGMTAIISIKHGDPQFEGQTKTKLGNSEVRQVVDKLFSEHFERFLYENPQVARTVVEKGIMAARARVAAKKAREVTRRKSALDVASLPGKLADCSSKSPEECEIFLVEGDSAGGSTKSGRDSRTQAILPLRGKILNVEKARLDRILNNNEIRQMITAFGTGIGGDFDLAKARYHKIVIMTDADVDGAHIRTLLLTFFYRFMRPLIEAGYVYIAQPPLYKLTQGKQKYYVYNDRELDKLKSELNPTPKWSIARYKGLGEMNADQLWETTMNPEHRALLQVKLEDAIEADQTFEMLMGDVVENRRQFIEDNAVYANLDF

[6] = tested on: Staphylococcus aureus; assay: Antibacterial activity against methicillin-sensitive Staphylococcus aureus; format: functional
[7] = Ratio of IC50 for Staphylococcus aureus DNA gyrase B to IC50 for Streptococcus pneumoniae Topoisomerase ParE

With `CCNC(=O)c1cc2c(-n3ccc(C(F)(F)F)n3)c(-c3cncc(C#N)c3)cnc2[nH]1` the MIC [1] was 0.2 µM (≈ 0.0851 µg/mL), the MIC [2] was 1.56 µM (≈ 0.664 µg/mL) and the logD [3] was 2.62. It also gave an IC50 [4] of 10 nM, an IC50 [5] of 23 nM and an MIC [6] of 3.13 µM (≈ 1.33 µg/mL).

In the case of `CCNC(=O)c1cc2c(-n3ccc(C(F)(F)F)n3)c(-c3cncc(C(=O)O)c3)cnc2[nH]1`, the MIC [1] is reported as 6.25 µM (≈ 2.78 µg/mL), the logD [3] is reported as -0.99 and the MIC [6] is reported as greater than 25 µM.

Compound `O=C(O)c1cncc(-c2cnc3[nH]c(C(=O)NC4CC4)cc3c2-n2ccc(C(F)(F)F)n2)c1` has an MIC [1] of 25 µM (≈ 11.4 µg/mL), a logD [3] of -0.98 and a Ratio IC50 [7] greater than 3. For the same compound, the IC50 [4] was 6 nM, the IC50 [5] was 39 nM and the MIC [6] was greater than 25 µM.

With `CO[C@@H]1[C@@H](OC(N)=O)[C@@H](O)[C@H](Oc2ccc3c(O)c(NC(=O)c4ccc(O)c(CC=C(C)C)c4)c(=O)oc3c2C)OC1(C)C` [NOVOBIOCIN] the MIC [1] was 0.78 µM (≈ 0.478 µg/mL), the MIC [2] was 0.39 µM (≈ 0.239 µg/mL) and the MIC [6] was 0.39 µM (≈ 0.239 µg/mL).

For `C[C@H]1COc2c(N3CCN(C)CC3)c(F)cc3c(=O)c(C(=O)O)cn1c23` [LEVOFLOXACIN], the MIC [1] was 3.13 µM (≈ 1.13 µg/mL), the MIC [2] was greater than 25 µM and the MIC [6] was 0.78 µM (≈ 0.282 µg/mL).

For `CCNC(=O)c1cc2c(-n3ccc(C(F)(F)F)n3)c(-c3cncc(C(=O)NC)c3)cnc2[nH]1`, the MIC [1] was 0.098 µM (≈ 0.0448 µg/mL), the MIC [2] was 12.5 µM (≈ 5.72 µg/mL) and the logD [3] was 2.21. It also gave an IC50 [4] of 16 nM, an IC50 [5] of 11 nM and an MIC [6] of 6.25 µM (≈ 2.86 µg/mL).

`CCNC(=O)c1cc2c(-n3ccc(C(F)(F)F)n3)c(-c3cc(-c4n[nH]c(=O)o4)cnc3OC)cnc2[nH]1` gave an MIC [1] of less than 0.02 µM, an MIC [2] of 0.2 µM (≈ 0.103 µg/mL) and a logD [3] of 2.91. It also gave an IC50 [4] of 3 nM, an IC50 [5] of 2 nM and an MIC [6] of 0.098 µM (≈ 0.0504 µg/mL).

With `CC(C)NC(=O)c1cc2c(-n3ccc(C(F)(F)F)n3)c(-c3cncc(C(=O)O)c3)cnc2[nH]1` the MIC [1] was greater than 25 µM, the logD [3] was -0.62 and the IC50 [4] was 44 nM. For the same compound, the IC50 [5] was 147 nM and the MIC [6] was greater than 25 µM.

In the case of `CCNC(=O)c1cc2c(-n3nc(C(F)(F)F)cc3C)c(-c3cncc(C(=O)O)c3)cnc2[nH]1`, the MIC [1] is reported as 12.5 µM (≈ 5.73 µg/mL), the logD [3] is reported as -0.88 and the IC50 [4] is reported as 65 nM. It also gave an IC50 [5] of 133 nM and an MIC [6] greater than 25 µM.

`CCCNC(=O)c1cc2c(-n3ccc(C(F)(F)F)n3)c(-c3cncc(C(=O)O)c3)cnc2[nH]1` gave an MIC [1] greater than 25 µM, a logD [3] of -0.79 and an IC50 [4] of 45 nM. It also gave an IC50 [5] of 58 nM and an MIC [6] greater than 25 µM.

Compound `CCNC(=O)c1cc2c(-n3ccc(C(F)(F)F)n3)c(-c3cnc(OC)c(-c4n[nH]c(=O)o4)c3)cnc2[nH]1` has an MIC [1] of less than 0.03 µM, an MIC [2] of 1.56 µM (≈ 0.803 µg/mL) and an IC50 [4] of 3 nM. It also gave an IC50 [5] of 4 nM and an MIC [6] of 0.78 µM (≈ 0.401 µg/mL).

`O=C(O)/C=C/c1cccc(-c2cnc3[nH]ccc3c2)c1` gave an MIC [1] of 200 µM (≈ 52.9 µg/mL), a logD [3] of 0.58 and an MIC [6] greater than 200 µM.

`CCNC(=O)c1cc2c(-n3ccc(C(F)(F)F)n3)c(-c3cncc(-c4n[nH]c(=O)o4)c3)cnc2[nH]1` showed an MIC [1] of less than 0.03 µM, an MIC [2] of 1.1 µM (≈ 0.533 µg/mL) and a logD [3] of 1.65. It also gave an IC50 [4] of 3 nM, an IC50 [5] of less than 1 nM and an MIC [6] of 0.4 µM (≈ 0.194 µg/mL).

For `CCNC(=O)c1cc2c(-n3ccc(C(F)(F)F)n3)c(-c3cncc(C(N)=O)c3)cnc2[nH]1`, the MIC [1] was 0.2 µM (≈ 0.0887 µg/mL), the MIC [2] was greater than 25 µM and the MIC [6] was 25 µM (≈ 11.1 µg/mL).

Source: ChEMBL document CHEMBL2057070, “Discovery of a novel azaindole class of antibacterial agents targeting the ATPase domains of DNA gyrase and Topoisomerase IV” (Bioorg Med Chem Lett, 2012)
